Experimental data taken from ChEMBL document CHEMBL1201862, “PubChem BioAssay data set” (2004).
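Values below derive from 48-hour exposures of cells grown in 96-well plates, with endpoints linearly interpolated between the two concentrations bracketing the appropriate inhibition level. GI50 is the concentration that inhibits growth by half.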 Activity calls are given as the source filed them. Cut-off read from the data, not from the text of the source: active = GI50 up to about 1.1 µM and inactive = higher.

Columns and labels:
Experiment in all cases: NCI anticancer screen, dose series, 48 h
HL-60 = test system: HL-60
ACHN = test system: ACHN
KM12 = test system: KM12
UACC-257 = test system: UACC-257
OVCAR-4 = test system: OVCAR-4
A549 = test system: A549
HOP-92 = test system: HOP-92
SW-620 = test system: SW-620
Malme-3M = test system: Malme-3M
HOP-62 = test system: HOP-62
HT-29 = test system: HT-29
UACC-62 = test system: UACC-62
SK-OV-3 = test system: SK-OV-3
A498 = test system: A498
SN12C = test system: SN12C
LOX IMVI = test system: LOX IMVI
RXF 393 = test system: RXF 393

Measured: GI50

O=C(c1ccccc1)c1c(CC(O)c2ccccn2)n(C(=O)c2ccccc2)c2ccccc12 (stereo not drawn)
inactive: HL-60 > 10 µM | ACHN 26.7 µM | KM12 28.4 µM | UACC-257 17.7 µM | OVCAR-4 21.8 µM | A549 25.3 µM | HOP-92 18.9 µM | SW-620 31.4 µM | Malme-3M 18.6 µM | HOP-62 17.9 µM | HT-29 15 µM | UACC-62 15.7 µM

CCOC(=O)CSc1cc[nH]c(=O)n1
inactive: SK-OV-3 > 100 µM | A498 > 100 µM | HL-60 > 100 µM | ACHN > 100 µM | KM12 > 100 µM | SN12C > 100 µM | UACC-257 > 100 µM | LOX IMVI > 100 µM | A549 > 100 µM | SW-620 > 100 µM | Malme-3M > 100 µM | HT-29 > 100 µM | RXF 393 31.6 µM | UACC-62 > 100 µM

C=C1C[C@]23C[C@@]1(O)CC[C@H]2[C@@]12C=C[C@H](O)[C@@](C)(C(=O)O1)[C@H]2[C@@H]3C(=O)O [GIBBERELLIN A3]
inactive: SK-OV-3 > 100 µM | HL-60 > 100 µM | KM12 > 100 µM | SN12C > 100 µM | UACC-257 > 100 µM | LOX IMVI > 100 µM | OVCAR-4 > 100 µM | A549 > 100 µM | HOP-92 > 100 µM | SW-620 > 100 µM | Malme-3M > 100 µM | HOP-62 > 100 µM | HT-29 > 100 µM | RXF 393 > 100 µM | UACC-62 > 100 µM

COc1ccc2c(C3(O)CCNCC3)c[nH]c2c1
inactive: SK-OV-3 > 100 µM | HL-60 > 100 µM | ACHN > 100 µM | KM12 > 100 µM | SN12C > 100 µM | LOX IMVI > 100 µM | OVCAR-4 > 100 µM | A549 > 100 µM | HOP-92 > 100 µM | SW-620 > 100 µM | Malme-3M > 100 µM | HOP-62 > 100 µM | HT-29 > 100 µM | RXF 393 > 100 µM | UACC-62 > 100 µM

COC(=O)N(C(=O)OC)C(C(=O)O)C(C)C (stereo not drawn)
inactive: HL-60 > 100 µM | ACHN > 100 µM | KM12 > 100 µM | SN12C > 100 µM | UACC-257 > 100 µM | LOX IMVI > 100 µM | OVCAR-4 > 100 µM | A549 > 100 µM | HOP-92 95.9 µM | SW-620 > 100 µM | HOP-62 > 100 µM | HT-29 > 100 µM | RXF 393 65 µM

O=C1Nc2ccc(Br)cc2/C1=N/Nc1ccc([N+](=O)[O-])cc1[N+](=O)[O-]
inactive: SK-OV-3 12.5 µM | HL-60 1.92 µM | ACHN 2.82 µM | KM12 4.13 µM | SN12C 3.04 µM | UACC-257 3.89 µM | LOX IMVI 1.73 µM | A549 5.47 µM | HOP-92 1.98 µM | SW-620 3.18 µM | Malme-3M 3.08 µM | HOP-62 5.7 µM | HT-29 3.78 µM | RXF 393 4.15 µM | UACC-62 3.85 µM

O=C(/C(=N/Nc1ccccc1)c1ccc([N+](=O)[O-])cc1)c1ccc([N+](=O)[O-])cc1
inactive: SK-OV-3 > 100 µM | ACHN > 100 µM | KM12 > 100 µM | SN12C > 100 µM | UACC-257 > 100 µM | OVCAR-4 > 100 µM | A549 > 100 µM | HOP-92 46.2 µM | SW-620 > 100 µM | Malme-3M > 100 µM | HT-29 20.7 µM | RXF 393 > 100 µM | UACC-62 > 100 µM

COC(OC)c1cccc2c1C(=O)CCC1(O)c3ccccc3C1C2 (stereo not drawn)
inactive: SK-OV-3 > 100 µM | HL-60 35.2 µM | KM12 74 µM | SN12C > 100 µM | UACC-257 84.1 µM | LOX IMVI > 100 µM | OVCAR-4 > 100 µM | A549 > 100 µM | SW-620 > 100 µM | Malme-3M > 100 µM | HOP-62 > 100 µM | HT-29 > 100 µM | UACC-62 > 100 µM

[N-]=[N+]=NC(c1cn(C2CC(O)C(CO)O2)c(=O)[nH]c1=O)C(Br)I (stereo not drawn)
inactive: SK-OV-3 > 100 µM | HL-60 > 100 µM | ACHN > 100 µM | KM12 > 100 µM | SN12C > 100 µM | LOX IMVI > 100 µM | A549 > 100 µM | HOP-92 > 100 µM | SW-620 > 100 µM | Malme-3M > 100 µM | HOP-62 > 100 µM | HT-29 > 100 µM | RXF 393 > 100 µM | UACC-62 > 100 µM

O=c1c2cccnc2ncn1CCN1CCCC1
inactive: SK-OV-3 > 100 µM | ACHN > 100 µM | KM12 > 100 µM | SN12C > 100 µM | LOX IMVI > 100 µM | OVCAR-4 > 100 µM | A549 > 100 µM | HOP-92 > 100 µM | SW-620 > 100 µM | Malme-3M > 100 µM | HOP-62 > 100 µM | HT-29 > 100 µM | RXF 393 > 100 µM | UACC-62 > 100 µM
